The values that follow come from article PMC12002301, “Discovery and functional characterization of a bombesin-type neuropeptide signaling system in an invertebrate” (Proceedings of the National Academy of Sciences of the …, 2025).

The test system of the experiment is ArBNR2(G272). In words: Luminescence (GFP-aequorin Ca2+) assay, CHO-K1 cells coexpressing ArBNR2(G272) and Gqs5. In kind it is cell-based, Asterias rubens. As to conditions: words, up to 10^-5 M. The text has this: Having identified ArBN and ArBN5-14 as peptides that are naturally derived from ArBNP in A. rubens, we then sought to identify receptors that these peptides may act as ligands for. BLAST analysis of transcriptome/genome data identified eleven candidate BN-type receptors, which we refer to as ArBNR1-11. Homologs of this family of proteins were also identified in other echinoderms. […] Accordingly, a modified form of ArBNR2 in which the glutamate residue at position 272 is substituted with glycine, ArBNR2(G272), also has seven predicted transmembrane domains (SI Appendix, SI Methods). […]
domains and other structural features (9). The topology of […] of the potential A. rubens BN-type receptors as predicted by Protter V1.0 comprised seven transmembrane domains, as expected for a GPCR. However, the topology of the proteins encoded by contig 1110162 and contig 1110464 comprised only six and four transmembrane domains, respectively. Analysis of the transcript […]
To determine the complete open reading frame of ArBNR2, contig 1110162 was used as a query for blastx analysis of A. rubens genome sequence data on NCBI and accession no. […] The protein (XP_033631283.1 referred to henceforth as ArBNR2) was analysed using […]
Having discovered that MgBNR2 has the expected topology for a GPCR when analysed using both Protter and DeepTMHMM, we then compared its sequence to ArBNR2. […]

Consider “EPMPSSLALYIANLSP-NH2 [ArBNP65-81, C-terminally amidated 16-residue peptide predicted to be derived from residues 65 to 81 of ArBNP]”, for which the peptide-induced luminescence result is given as “did not trigger luminescence”. For “NYNRVFGPTY-NH2 [ArBN5-14, C-terminally amidated 10-residue peptide corresponding to the C-terminal region of ArBN]”, the peptide-induced luminescence result is “did not trigger luminescence”.
